The target in test [1] is T1, Beta-secretase 1 (Homo sapiens, UniProt P56817). Nature of the test: Inhibition of human BACE1 using HiLyte Fluo488/QXL-520 peptide substrate at 10 uM by fluorescence assay.
Test [2] addresses T1, Beta-secretase 1. Put plainly: Inhibition of human BACE1 using HiLyte Fluo488/QXL-520 peptide substrate by fluorescence assay.

T1 sequence (P56817 whole entry): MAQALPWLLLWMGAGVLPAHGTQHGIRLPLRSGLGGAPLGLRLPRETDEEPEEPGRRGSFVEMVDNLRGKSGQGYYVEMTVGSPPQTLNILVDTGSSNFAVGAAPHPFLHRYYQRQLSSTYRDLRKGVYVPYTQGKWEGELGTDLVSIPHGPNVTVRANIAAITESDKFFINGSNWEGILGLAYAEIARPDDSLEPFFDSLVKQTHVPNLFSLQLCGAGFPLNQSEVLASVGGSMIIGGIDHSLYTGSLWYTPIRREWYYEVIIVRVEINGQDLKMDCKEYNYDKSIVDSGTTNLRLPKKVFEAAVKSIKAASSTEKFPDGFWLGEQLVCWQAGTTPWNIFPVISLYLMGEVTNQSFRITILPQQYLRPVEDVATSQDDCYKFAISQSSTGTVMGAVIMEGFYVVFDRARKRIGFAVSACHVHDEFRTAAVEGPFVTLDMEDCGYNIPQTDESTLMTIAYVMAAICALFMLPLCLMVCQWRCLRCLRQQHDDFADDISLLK

For the molecule `COC(=O)[C@H]1OCC(=S)N[C@@H]1c1ccc(OC)c(OC)c1`, the inhibition at Beta-secretase 1 [1] came to 24%.
`Cc1ccc([C@H]2NC(=N)CO[C@@H]2C(N)=O)cc1` returned an inhibition against Beta-secretase 1 [1] of 14%.
On the same count and under the same terms, the figure for `COC(=O)[C@H]1OCC(=S)N[C@@H]1c1ccc(C)cc1` is 19%; for `COC(=O)[C@H]1OCC(=S)N[C@@H]1c1ccc(OC)c(Br)c1` it is 26%; for `COc1ccc([C@H]2NC(=N)CO[C@@H]2C(N)=O)cc1Br` it is 17%.
Still for that read-out and setting: with `COc1ccc([C@H]2NC(=N)CO[C@@H]2C(N)=O)cc1OC` the figure was 10%.
The same measure, in the same setting: with `COc1ccc([C@H]2NC(=N)CO[C@@H]2C(N)=O)cc1` the figure was 27%.
For the molecule `COC(=O)[C@H]1OCC(=S)N[C@@H]1c1ccc(OC)cc1`, the IC50 against Beta-secretase 1 [2] came out at 5.7 µM. At Beta-secretase 1 [1], this molecule displayed an inhibition of 40%.

What is called inhibition is the relative decrease from the control value, in per cent. A lower inhibition goes with little suppression. The IC50 is the concentration that gives 50% inhibition. A high value points to weaker potency in that assay.

These data come from ChEMBL document CHEMBL4622858, “Synthesis of morpholine derivatives using the Castagnoli-Cushman reaction as BACE1 inhibitors: Unexpected binding activity of cyclic thioamides” (Bioorg Med Chem Lett, 2020).
